Measurements published in patent publication US6869933B2, “HIV-specific CTL inducing peptides and medicaments for preventing or treating AIDS comprising the peptides” (Ajinomoto Co., Inc., priority 1999, dated 2005).
Marks after values point to notes of the source that are not given here.

Experiments:
[1] = tested on: HLA-A*1101 positive Tm EBV transformed cells pulsed with the peptide; test: Induction of specific CTL after a single stimulation with the peptides in PBMC from HIV-subtype E-seropositive patients carrying HLA-A11; conditions: for patients from whom the specific CTL could be induced: HIV-1 subtype E infected patients carrying HLA-A11
[2] = tested on: HLA-A*1101 positive Tm EBV transformed cells pulsed with the peptide; test: Induction of specific CTL by a single stimulation with the peptides in PBL from HIV-seropositive patients carrying HLA-A11 (51Cr release CTL assay); conditions: for patients in whom peptide-specific CTL activity was induced: six HIV-1 seropositive patients carrying HLA-A*1101
[3] = tested on: C1R-A*1101 cells infected with vaccinia virus expressing HIV-1 Pol protein or Env protein; format: cell-based, human
[4] = tested on: HLA-A*1101 positive Tm EBV transformed cells pulsed with the peptide; test: Induction of specific CTL after a single stimulation with the peptides in PBMC from HIV-subtype B-seropositive patients carrying HLA-A11
[5] = patient TT-005, effector:target 40:1, peptide 1 μM
[6] = patient TT-007, effector:target 40:1, peptide 1 μM
[7] = patient TT-008, effector:target 40:1, peptide 1 μM
[8] = patient TT-009, effector:target 40:1, peptide 1 μM
[9] = patient TU-002, effector:target 40:1, peptide 1 μM
[10] = patient TU-003, effector:target 40:1, peptide 1 μM
[11] = patient TU-007, effector:target 40:1, peptide 1 μM
[12] = patient five, effector:target 5:1, peptide 1 μM
[13] = patient five, effector:target 40:1, peptide 1 μM
[14] = patient four, effector:target 5:1, peptide 1 μM
[15] = patient four, effector:target 40:1, peptide 1 μM
[16] = patient one, effector:target 5:1, peptide 1 μM
[17] = patient one, effector:target 40:1, peptide 1 μM
[18] = patient six, effector:target 5:1, peptide 1 μM
[19] = patient six, effector:target 40:1, peptide 1 μM
[20] = patient three, effector:target 5:1, peptide 1 μM
[21] = patient three, effector:target 40:1, peptide 1 μM
[22] = patient two, effector:target 5:1, peptide 1 μM
[23] = patient two, effector:target 40:1, peptide 1 μM
[24] = patient KI-005, effector:target 40:1, peptide 1 μM
[25] = patient KI-015, effector:target 40:1, peptide 1 μM
[26] = patient KI-030, effector:target 40:1, peptide 1 μM
[27] = patient KI-035, effector:target 40:1, peptide 1 μM
[28] = patient KI-036, effector:target 40:1, peptide 1 μM

| Sequence | patients from whom the specific CTL could be induced [1] | relative cell lysis (%) [1, 5] | relative cell lysis (%) [1, 6] | relative cell lysis (%) [1, 7] | relative cell lysis (%) [1, 8] | relative cell lysis (%) [1, 9] | relative cell lysis (%) [1, 10] | relative cell lysis (%) [2, 12] | relative cell lysis (%) [2, 13] | relative cell lysis (%) [2, 14] | relative cell lysis (%) [2, 15] | relative cell lysis (%) [2, 16] | relative cell lysis (%) [2, 17] | relative cell lysis (%) [2, 18] | relative cell lysis (%) [2, 19] | relative cell lysis (%) [2, 20] | relative cell lysis (%) [2, 21] | relative cell lysis (%) [2, 22] | relative cell lysis (%) [2, 23] | patients in whom peptide-specific CTL activity was induced [2] | other results |
| --- | --- | --- | --- | --- | --- | --- | --- | --- | --- | --- | --- | --- | --- | --- | --- | --- | --- | --- | --- | --- | --- |
| QIIEELIKK (Human immunodeficiency virus type 1) [Pol 675-9-5E] | five of seven | 3.4* % | 55.1% | 23.4% | 63.8% | 3.4% | 0.2% |  |  |  |  |  |  |  |  |  |  |  |  |  | relative cell lysis (%) [1, 11]: 5.7% |
| AIFQSSMTK (Human immunodeficiency virus type 1) [Pol313-321] |  |  |  |  |  |  |  | −3.7% | 2.8% | 26.8% | 53.5% | 3.7% | 13.6% | 1.1% | 0.7% | 2.3% | −2.4% | 8.2% | 31.1% | three patients |  |
| AFDLSFFLK (Human immunodeficiency virus type 1) [Nef 84-9-2F6F] | six of seven | −1.3% | 24.6% | 75.5% | 76.5% | 15.4% | 41.2% |  |  |  |  |  |  |  |  |  |  |  |  |  | relative cell lysis (%) [1, 11]: 64.2% |
| IYQEPFKNLK [Pol496-505] |  |  |  |  |  |  |  | −2.8% | 4.9% | 4.6% | 8.00% | −2.9% | −0.6% | 3.0% | 12.9% | 3.2% | 5.1% | 2.6% | 2.5% | one of six patients |  |
| QIYAGIKVK [SF2-Pol424-9] |  |  |  |  |  |  |  | −1.7% | −3.7% | 11.7% | 27.4** % | 3.1% | −0.2% | 2.0% | 2.3% | −3.3% | 7.0% | −0.2% | 4.9% | one of six patients | killing of vaccinia-infected target cells by peptide-specific CTL clones (endogenous processing and presentation by HLA-A*1101) [3]: contain HLA-A*1101 restricted HIV-1 specific CTL epitopes |
| AVDLSHFLK (Human immunodeficiency virus type 1) [Nef 84-9, reference compound] |  |  |  |  |  |  |  |  |  |  |  |  |  |  |  |  |  |  |  |  | relative cell lysis (%) [4, 24]: 25.3* %; relative cell lysis (%) [4, 25]: 68.6%; relative cell lysis (%) [4, 26]: 6.6%; relative cell lysis (%) [4, 27]: 5.8%; relative cell lysis (%) [4, 28]: 16.5% |
| ALDLSHFLK (Human immunodeficiency virus type 1) [Nef 84-9-2L] |  |  |  |  |  |  |  |  |  |  |  |  |  |  |  |  |  |  |  |  | patients from whom the specific CTL could be induced ([4]; HIV-1 subtype B infected patients carrying HLA-A11): three of five; relative cell lysis (%) [4, 24]: 68.3%; relative cell lysis (%) [4, 25]: 6.3%; relative cell lysis (%) [4, 26]: 5.5%; relative cell lysis (%) [4, 27]: 16.4%; relative cell lysis (%) [4, 28]: 50.4% |
| QIIEKLIEK (Human immunodeficiency virus type 1) [Pol 675-9-5K8E] | two of six | −4.1% | 21.7% | 10.3% | 4.5% | 5.6% | −5.6% |  |  |  |  |  |  |  |  |  |  |  |  |  |  |
| SVITQACPK [SF2-Env202-9] |  |  |  |  |  |  |  |  |  |  |  |  |  |  |  |  |  |  |  |  | killing of vaccinia-infected target cells by peptide-specific CTL clones (endogenous processing and presentation by HLA-A*1101) [3]: contain HLA-A*1101 restricted HIV-1 specific CTL epitopes |
| DPNPQEVVL (Human immunodeficiency virus type 1) [Env77-85] |  |  |  |  |  |  |  | −3.6% | 1.7% | 1.5% | 2.5% | −0.1% | 0.2% | 0.0% | 0.5% | −2.8% | −0.3% | −0.4% | −1.1% |  |  |
